Tests used:
[1] = tested on: Total ATXN3 (tATXN3) protein; experiment: Endogenous Total ATXN3 (tATXN3) Protein Assay (MSD immunoassay of cell lysates); format: cell-based; settings: average IC50, total ATXN3 protein in cell lysate after 48 h with compound (Table 1)
Procedure, shortened: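 Cells in DMEM/10% FBS were plated at 10,000 per well onto 7-point, 3.16-fold compound dilutions in duplicate for 48 h at 37° C, then lysed. Total ATXN3 in lysates was measured by MSD sandwich immunoassay: mouse anti-ATXN3 capture, rabbit anti-ATXN3 detection, SULFO-TAG anti-rabbit. Average IC50 was reported in star bins.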

ATXN3 pre-mRNA = experiment: RT-qPCR Assay to Quantify Exon 4 Skipping in ATXN3 pre-mRNA in Cells; format: cell-based; settings: percent exon 4 skipping in ATXN3 pre-mRNA, RT-qPCR of cell lysates; average IC50
Procedure, shortened: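 Cells plated at 10,000/well onto a 7-point, 3.16-fold DMSO dilution series (duplicates), incubated 24 h at 37 °C, then lysed. Exon 4 skipping measured by one-step RT-qPCR (48 °C RT, 40 cycles); IC50 interpolated from dose-response fit of percent skipping.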

Row | Compound | IC50 [1] [nM] | IC50 (ATXN3 pre-mRNA) [nM]
1 | (2R,3S)-2-amino-3-(3-bromo-5-chloro-7-((thiophen-2-ylmethyl)amino)thieno[3,2-b]pyridin-2-yl)cyclohexan-1-one and (2S,3R)-2-amino-3-(3-bromo-5-chloro-7-((thiophen-2-ylmethyl)amino)thieno[3,2-b]pyridin-2-yl)cyclohexan-1-one [Compound 192] | ≤ 30 | ≤ 30
2 | N[C@@H]1CCCO[C@H]1c1sc2c(NCc3ccco3)cc(Cl)nc2c1Br [Compound 118, 2-((2R,3R)-3-aminotetrahydro-2H-pyran-2-yl)-3-bromo-5-chloro-N-(furan-2-ylmethyl)thieno[3,2-b]pyridin-7-amine] | 300 to 1000 | 300 to 1000
3 | Cc1c([C@H]2CC=CC[C@@H]2N)sc2c(NCc3cccs3)cc(Cl)nc12 [Compound 222, 2-((1S,6S)-6-aminocyclohex-3-en-1-yl)-5-chloro-3-methyl-N-(thiophen-2-ylmethyl)thieno[3,2-b]pyridin-7-amine] | ≤ 30 | ≤ 30
4 | 6-((3R,4S)-3-aminotetrahydro-2H-pyran-4-yl)-2,7-dichloro-N-(furan-2-ylmethyl)thieno[3,2-d]pyrimidin-4-amine and 6-((3S,4R)-3-aminotetrahydro-2H-pyran-4-yl)-2,7-dichloro-N-(furan-2-ylmethyl)thieno[3,2-d]pyrimidin-4-amine [Compound 354] | 30 to 300 | 30 to 300
5 | 2-((1R,5S,6S)-6-amino-5-methoxycyclohex-3-en-1-yl)-3-bromo-5-chloro-N-(thiophen-2-ylmethyl)thieno[3,2-b]pyridin-7-amine and 2-((1S,5R,6R)-6-amino-5-methoxycyclohex-3-en-1-yl)-3-bromo-5-chloro-N-(thiophen-2-ylmethyl)thieno[3,2-b]pyridin-7-amine [Compound 371] | 30 to 300 | 30 to 300
6 | Cc1c([C@H]2CCCC[C@@H]2N)sc2c(NCc3ccccc3)cc(Cl)nc12 [Compound 280, 2-((1S,2S)-2-aminocyclohexyl)-N-benzyl-5-chloro-3-methylthieno[3,2-b]pyridin-7-amine] | 30 to 300 | 30 to 300
7 | N[C@@H]1CCOC[C@H]1c1sc2c(NCc3ccccc3)cc(Cl)nc2c1Cl [Compound 406, 2-((3S,4R)-4-aminotetrahydro-2H-pyran-3-yl)-N-benzyl-3,5-dichlorothieno[3,2-b]pyridin-7-amine] | 30 to 300 | ≤ 30
8 | 3-bromo-5-chloro-2-((1R,2R)-2-(methylamino)cyclohexyl)-N-(thiophen-2-ylmethyl)thieno[3,2-b]pyridin-7-amine and 3-bromo-5-chloro-2-((1S,2S)-2-(methylamino)cyclohexyl)-N-(thiophen-2-ylmethyl)thieno[3,2-b]pyridin-7-amine [Compound 375] | 30 to 300 | 30 to 300
9 | Cc1c([C@@H]2CCCCC[C@@H]2N)sc2c(NCc3cccs3)cc(Cl)nc12 [Compound 82, 2-((1R,2S)-2-aminocycloheptyl)-5-chloro-3-methyl-N-(thiophen-2-ylmethyl)thieno[3,2-b]pyridin-7-amine] | 300 to 1000 | 300 to 1000
10 | N[C@@H]1CCC[C@H]1c1sc2c(NCc3cccs3)cc(Cl)nc2c1Br [Compound 7, 2-((1R,2R)-2-aminocyclopentyl)-3-bromo-5-chloro-N-(thiophen-2-ylmethyl)thieno[3,2-b]pyridin-7-amine] | 300 to 1000 | 300 to 1000
11 | N[C@H]1CCCC[C@@H]1c1c(I)c2nc(Cl)nc(NCc3ccco3)c2n1C(F)F [Compound 304, 6-((1S,2S)-2-aminocyclohexyl)-2-chloro-5-(difluoromethyl)-N-(furan-2-ylmethyl)-7-iodo-5H-pyrrolo[3,2-d]pyrimidin-4-amine] | 30 to 300 | 30 to 300
12 | N[C@@H]1C[C@@H]2C[C@@H]2C[C@H]1c1sc2c(NCc3cccs3)cc(Cl)nc2c1Br.N[C@H]1C[C@H]2C[C@H]2C[C@@H]1c1sc2c(NCc3cccs3)cc(Cl)nc2c1Br (mixture of isomers) [Compound 290, 2-((1R,3R,4R,6S)-4-aminobicyclo[4.1.0]heptan-3-yl)-3-bromo-5-chloro-N-(thiophen-2-ylmethyl)thieno[3,2-b]pyridin-7-amine and 2-((1S,3S,4S,6R)-4-aminobicyclo[4.1.0]heptan-3-yl)-3-bromo-5-chloro-N-(thiophen-2-ylmethyl)thieno[3,2-b]pyridin-7-amine] | 30 to 300 | 30 to 300
13 | N[C@H]1CCC[C@H]1c1sc2c(NCc3cccs3)cc(Cl)nc2c1Cl [Compound 4, 2-((1R,2S)-2-aminocyclopentyl)-3,5-dichloro-N-(thiophen-2-ylmethyl)thieno[3,2-b]pyridin-7-amine] | 30 to 300 | 30 to 300
14 | Cc1c([C@H]2CC=CC[C@@H]2N)sc2c(NCc3cccs3)nc(Cl)nc12 [Compound 268, 6-((1S,6S)-6-aminocyclohex-3-en-1-yl)-2-chloro-7-methyl-N-(thiophen-2-ylmethyl)thieno[3,2-d]pyrimidin-4-amine] | 30 to 300 | 30 to 300
15 | N[C@H]1CC=CC[C@@H]1c1sc2c(NCc3cccs3)nc(Cl)nc2c1Br [Compound 191, 6-((1S,6S)-6-aminocyclohex-3-en-1-yl)-7-bromo-2-chloro-N-(thiophen-2-ylmethyl)thieno[3,2-d]pyrimidin-4-amine] | ≤ 30 | ≤ 30
16 | Cc1c([C@H]2OCCC[C@@H]2N)sc2c(NCc3ccccc3)nc(Cl)nc12 [Compound 63, 6-((2S,3S)-3-aminotetrahydro-2H-pyran-2-yl)-N-benzyl-2-chloro-7-methylthieno[3,2-d]pyrimidin-4-amine] | 30 to 300 | 30 to 300
17 | 2-((2R,3R,5R)-3-amino-5-methyltetrahydro-2H-pyran-2-yl)-3-bromo-5-chloro-N-(thiophen-2-ylmethyl)thieno[3,2-b]pyridin-7-amine and 2-((2S,3S,5S)-3-amino-5-methyltetrahydro-2H-pyran-2-yl)-3-bromo-5-chloro-N-(thiophen-2-ylmethyl)thieno[3,2-b]pyridin-7-amine [Compound 284] | 30 to 300 | 30 to 300
18 | 2-((1R,6S)-6-amino-2,2-difluorocyclohexyl)-3-bromo-5-chloro-N-(thiophen-2-ylmethyl)thieno[3,2-b]pyridin-7-amine and 2-((1S,6R)-6-amino-2,2-difluorocyclohexyl)-3-bromo-5-chloro-N-(thiophen-2-ylmethyl)thieno[3,2-b]pyridin-7-amine [Compound 269] | 30 to 300 | 30 to 300
19 | N[C@@H]1CCCC(F)(F)[C@H]1c1sc2c(NCc3ccco3)nc(Cl)nc2c1Br [Compound 412, 6-((1S,6R)-6-amino-2,2-difluorocyclohexyl)-7-bromo-2-chloro-N-(furan-2-ylmethyl)thieno[3,2-d]pyrimidin-4-amine] | 300 to 1000 | 300 to 1000
20 | N[C@@H]1CCCC[C@H]1c1cc2nc(Cl)cc(NCc3cccs3)c2s1 [Compound 23, 2-((1R,2R)-2-aminocyclohexyl)-5-chloro-N-(thiophen-2-ylmethyl)thieno[3,2-b]pyridin-7-amine] | > 1000 | > 1000
21 | 2-((1R,6R)-6-aminocyclohex-3-en-1-yl)-5-chloro-3-(propa-1,2-dien-1-yl)-N-(thiophen-2-ylmethyl)thieno[3,2-b]pyridin-7-amine and 2-((1S,6S)-6-aminocyclohex-3-en-1-yl)-5-chloro-3-(propa-1,2-dien-1-yl)-N-(thiophen-2-ylmethyl)thieno[3,2-b]pyridin-7-amine [Compound 324] | 30 to 300 | 30 to 300
22 | N[C@@H]1CC(F)(F)CC[C@@H]1c1sc2c(NCc3cccs3)cc(Cl)nc2c1Br.N[C@H]1CC(F)(F)CC[C@H]1c1sc2c(NCc3cccs3)cc(Cl)nc2c1Br (mixture of isomers) [Compound 30, 2-((1R,2S)-2-amino-4,4-difluorocyclohexyl)-3-bromo-5-chloro-N-(thiophen-2-ylmethyl)thieno[3,2-b]pyridin-7-amine and 2-((1S,2R)-2-amino-4,4-difluorocyclohexyl)-3-bromo-5-chloro-N-(thiophen-2-ylmethyl)thieno[3,2-b]pyridin-7-amine] | > 1000 | > 1000
23 | N[C@H]1CC=CC[C@@H]1c1sc2c(NCc3ccccc3)cc(Cl)nc2c1Cl [Compound 207, 2-((1S,6S)-6-aminocyclohex-3-en-1-yl)-N-benzyl-3,5-dichlorothieno[3,2-b]pyridin-7-amine] | ≤ 30 | ≤ 30
24 | N[C@@H]1CCNCC[C@H]1c1sc2c(NCc3cccs3)cc(Cl)nc2c1Br.N[C@H]1CCNCC[C@@H]1c1sc2c(NCc3cccs3)cc(Cl)nc2c1Br (mixture of isomers) [Compound 147, 2-((4R,5R)-5-aminoazepan-4-yl)-3-bromo-5-chloro-N-(thiophen-2-ylmethyl)thieno[3,2-b]pyridin-7-amine and 2-((4S,5S)-5-aminoazepan-4-yl)-3-bromo-5-chloro-N-(thiophen-2-ylmethyl)thieno[3,2-b]pyridin-7-amine] | > 1000 | > 1000
25 | 6-((1S,2S)-2-aminocyclohexyl)-N-(but-2-yn-1-yl)-2-chloro-7-iodothieno[3,2-d]pyrimidin-4-amine [Compound 286] | 30 to 300 | 30 to 300
26 | N[C@H]1CCCC[C@@H]1c1sc2c(NCc3cccs3)cc(Cl)nc2c1C1CC1 [Compound 130, 2-((1S,2S)-2-aminocyclohexyl)-5-chloro-3-cyclopropyl-N-(thiophen-2-ylmethyl)thieno[3,2-b]pyridin-7-amine] | 30 to 300 | 30 to 300

From patent US20250382305A1 (PTC THERAPEUTICS, INC., priority 2022, published 2025)
